# From patent US11000518B2, “Use of combination of VEGFR inhibitor and PARP inhibitor in preparation of medicament for treating gastric cancer” (Jiangsu Hengrui Medicine Co., Ltd., priority 2016, dated 2021)
# Structures can show the parent of a compound that is named as a salt.
# Tests used:
# [1] = system: human gastric cancer PDX model STO #069; assay: Efficacy on subcutaneous implantation tumor of human gastric cancer PDX model STO #069 tumor-bearing nude mice; format: in vivo, BALB/c nude mice
# Procedure: Efficacy of the Composition of the Present Invention on the Subcutaneous Implantation Tumor of Human Gastric Cancer PDX Model STO #069 Tumor-Bearing Nude Mice
# Test animals: BALB/c nude mice, 6-7 weeks old, female, purchased from Beijing Vital River Laboratory Animal Technology Co., Ltd., with laboratory animals use license No.: SCXK (Shanghai) 2015-0022 and animal certificate No.: 11400700166108, feeding condition: SPF grade.
# Control group: solvent group.
# Compound A: compound A (100 mg) was weighed, added with 0.5% carboxymethylcellulose solution (10 mL), vortex-mixed or ultrasonic-mixed until the solution was clear, and stored at 4° C., and the dose volume was 5 mL/kg;
# Compound B: compound B (540 mg) was weighed and dissolved in purified water (31 mL), then added with 0.2% Tween 80 (0.18 mL) and 10% PEG 400 (9.0 mL), vortex-mixed until the solution was clear, followed by adding purified water to a solution volume of 90 mL and storing at 4° C., and the dose volume was 5 mL/kg;
# Cisplatin: cisplatin (3 mg) was weighed and dissolved in normal saline (6.0 mL), the concentration of the solution was 0.5 mg/mL, and the solution was prepared to a total of 6.0 mL, stored at 4° C., and filtrated with a 0.22 μm Millipore Millex® membrane before each use;
# Paclitaxel: paclitaxel (6 mg/mL, 1.5 mL) was formulated into a solution (1.5 mg/mL) with normal saline (6.0 mL) and stored at 4° C., which was freshly formulated before each use.
# After the tumor grew to 600-700 mm^3, it was passaged in the nude mice, which were defined as passage 0 (P0); after implantation of tumor passage 0 (P0), the mice were defined as passage 1 (P1); the passage was thus defined according to the order continuously implanted in nude mice; the next passage generated from FP5 was defined as FP6, and so on; and the FP6 tumor tissue was used for this study.
# (1) Tumor implantation: the STO #069 FP6 tumor tissue (which was pathologically diagnosed as gastric poorly differentiated adenocarcinoma) was cut into small pieces (˜30 mm^3), and implanted subcutaneously into the right side of the nude mice. After the mean tumor size was close to 150-250 mm^3, the mice were grouped and treated, a total of 7 groups, each group of 6 tumor-bearing mice.
# (2) Observation and recording: the tumor volume was measured 2-3 times per week, the mice were weighed, and the data were recorded.
# The tumor volume was measured twice a week with a caliper and measured in two dimensions, the unit is mm^3;
# V=½×a×b^2, wherein a and b represented length and width, respectively.
# T/C (%)=(T−T0)/(C−C0)×100%, wherein T and C represented the tumor volumes of the administration group and the solvent group at the end of the experiment, respectively; and T0 and C0 represented the tumor volumes of the administration group and the solvent group at the start of the experiment, respectively.
# The endpoint of the experiment: The endpoint of the efficacy study was set to 21 days. If the tumor volume>2000 mm^3, or if a nude mouse lost more than 20% of its weight or was very ill and cannot get enough food or water, the nude mouse would be removed from the experimental group and euthanized.
# [2] = system: advanced prostate cancer patients with DNA repair gene mutations; settings: phase II clinical trial; cited from earlier work
# [3] = D 21, compound A 50 mg/kg PO QD × 21, compound B 30 mg/kg PO BID × 21, cisplatin 5 mg/kg IP QW × 3, paclitaxel 15 mg/kg IP QW × 3
SMILES,"Partial regression ([1]; 6 animals per group, same doses as TGI column)","Mean tumor volume (mm^3) (Mean ± SEM) D 0 ([1]; D 0 = first administration time (baseline), STO#069 nude mice, n = 6)","% T/C D 21 [1, 3] [%]","% tumor growth inhibition (TGI) D 21 [1, 3] [%]","Mean tumor volume (mm^3) (Mean ± SEM) D 21 [1, 3]","tumor inhibition rate ([1]; Day 21 of administration, compound A 50 mg/kg QD×21, compound B 30 mg/kg BID×21, cisplatin 5 mg/kg QW×3, paclitaxel 15 mg/kg QW×3) [%]",response [2] [%]
"N#CC1(c2ccc(NC(=O)c3cccnc3NCc3ccncc3)cc2)CCCC1 [Compound A, Apatinib mesylate]",0,185.4 ± 17.0,44.68,55.32,465.9 ± 17.0,55.32,
O=C(c1cc(Cc2n[nH]c(=O)c3ccccc23)ccc1F)N1CCN(C(=O)C2CC2)CC1 [Olaparib],,,,,,,88
